Experimental data from the NIST ThermoML archive (doi:10.1016/j.jct.2016.03.026).

Assay: xn = mol fraction of the nth substance listed
Conditions: 283.15 K, Fluid (supercritical or subcritical phases), Vibrating tube method, x1 = 0.97

O=C=O [carbon dioxide] + CO
Conditions	mass density [kg/m3]
10450 kPa	927.45
10475 kPa	927.61
10500 kPa	927.78
10525 kPa	927.92
10550 kPa	928.1
10575 kPa	928.27
10600 kPa	928.46
10625 kPa	928.66
10650 kPa	928.76
10675 kPa	928.84
10700 kPa	929
10725 kPa	929.16
10750 kPa	929.25
10775 kPa	929.45
10800 kPa	929.62
10825 kPa	929.74
10850 kPa	929.88
10875 kPa	930.06
10900 kPa	930.27
10925 kPa	930.41
10950 kPa	930.57
10975 kPa	930.73
11000 kPa	930.89
11025 kPa	931.03
11050 kPa	931.19
11075 kPa	931.33
11100 kPa	931.58
11125 kPa	931.69
11150 kPa	931.86
11175 kPa	932.02
11200 kPa	932.18
11225 kPa	932.34
11250 kPa	932.51
11275 kPa	932.67
11300 kPa	932.9
11325 kPa	933.08
11350 kPa	933.16
11375 kPa	933.37
11400 kPa	933.49
11425 kPa	933.66
11450 kPa	933.88
11475 kPa	933.98
11500 kPa	934.17
11525 kPa	934.39
11550 kPa	934.47
11575 kPa	934.64
11600 kPa	934.8
11625 kPa	934.96
11650 kPa	935.12
11675 kPa	935.29
11700 kPa	935.45
11725 kPa	935.61
11750 kPa	935.78
11775 kPa	935.94
11800 kPa	936.1
11825 kPa	936.26
11850 kPa	936.43
11875 kPa	936.59
11900 kPa	936.74
11925 kPa	936.92
11950 kPa	937.07
11975 kPa	937.23
12000 kPa	937.33
12025 kPa	937.53
12050 kPa	937.68
12075 kPa	937.82
12100 kPa	937.98
12125 kPa	938.14
12150 kPa	938.31
12175 kPa	938.47
12200 kPa	938.63
12225 kPa	938.8
12250 kPa	938.96
12275 kPa	939.1
12300 kPa	939.21
12325 kPa	939.37
12350 kPa	939.53
12375 kPa	939.7
12400 kPa	939.86
12425 kPa	940.02
12450 kPa	940.19
12475 kPa	940.27
12500 kPa	940.45
12525 kPa	940.59
12550 kPa	940.76
12575 kPa	940.92
12600 kPa	941.08
12625 kPa	941.25
12650 kPa	941.41
12675 kPa	941.57
12700 kPa	941.74
12725 kPa	941.87
12750 kPa	942.06
12775 kPa	942.16
12800 kPa	942.34
12825 kPa	942.47
12850 kPa	942.63
12875 kPa	942.8
12900 kPa	942.96
12925 kPa	943.13
12950 kPa	943.22
12975 kPa	943.37
13000 kPa	943.53
13025 kPa	943.7
13050 kPa	943.86
13075 kPa	944.02
13100 kPa	944.17
13125 kPa	944.27
13150 kPa	944.43
13175 kPa	944.59
13200 kPa	944.76
13225 kPa	944.92
13250 kPa	945.05
13275 kPa	945.17
13300 kPa	945.33
13325 kPa	945.49
13350 kPa	945.66
13375 kPa	945.77
13400 kPa	945.9
13425 kPa	946.06
13450 kPa	946.23
13475 kPa	946.39
13500 kPa	946.47
13525 kPa	946.63
13550 kPa	946.8
13575 kPa	946.94
13600 kPa	947.04
13625 kPa	947.2
13650 kPa	947.37
13675 kPa	947.53
13700 kPa	947.69
13725 kPa	947.78
13750 kPa	947.94
13775 kPa	948.1
13800 kPa	948.24
13825 kPa	948.4
13850 kPa	948.51
13875 kPa	948.67
13900 kPa	948.84
13925 kPa	948.95
13950 kPa	949.1
13975 kPa	949.24
14000 kPa	949.41
14025 kPa	949.51
14050 kPa	949.65
14075 kPa	949.82
14100 kPa	949.98
14125 kPa	950.11
14150 kPa	950.22
14175 kPa	950.39
14200 kPa	950.55
14225 kPa	950.7
14250 kPa	950.8
14275 kPa	950.96
14300 kPa	951.12
14325 kPa	951.2
14350 kPa	951.37
14375 kPa	951.51
14400 kPa	951.61
14425 kPa	951.77
14450 kPa	951.93
14475 kPa	952.09
14500 kPa	952.19
14525 kPa	952.37
14550 kPa	952.51
14575 kPa	952.59
14600 kPa	952.75
14625 kPa	952.93
14650 kPa	953.08
14675 kPa	953.17
14700 kPa	953.32
14725 kPa	953.48
14750 kPa	953.62
14775 kPa	953.73
14800 kPa	953.88
14825 kPa	954.02
14850 kPa	954.14
14875 kPa	954.28
14900 kPa	954.41
14925 kPa	954.57
14950 kPa	954.68
14975 kPa	954.79
15000 kPa	954.95
15025 kPa	955.09
15050 kPa	955.2
15075 kPa	955.36
15100 kPa	955.44
15125 kPa	955.6
15150 kPa	955.77
15175 kPa	955.88
15200 kPa	956.01
15225 kPa	956.18
15250 kPa	956.27
15275 kPa	956.42
15300 kPa	956.56
15325 kPa	956.66
15350 kPa	956.78
15375 kPa	956.93
15400 kPa	957.07
15425 kPa	957.17
15450 kPa	957.32
15475 kPa	957.47
15500 kPa	957.56
15525 kPa	957.72
15550 kPa	957.84
15575 kPa	957.97
15600 kPa	958.13
15625 kPa	958.22
15650 kPa	958.37
15675 kPa	958.52
15700 kPa	958.62
15725 kPa	958.78
15750 kPa	958.89
15775 kPa	959.05
15800 kPa	959.19
15825 kPa	959.3
15850 kPa	959.43
15875 kPa	959.55
15900 kPa	959.71
15925 kPa	959.84
15950 kPa	959.94
15975 kPa	960.09
16000 kPa	960.25
16025 kPa	960.33
16050 kPa	960.49
16075 kPa	960.6
16100 kPa	960.74
16125 kPa	960.89
16150 kPa	960.98
16175 kPa	961.15
16200 kPa	961.23
16225 kPa	961.39
16250 kPa	961.53
16275 kPa	961.63
16300 kPa	961.74
16325 kPa	961.89
16350 kPa	962.02
16375 kPa	962.15
16400 kPa	962.28
16425 kPa	962.42
16450 kPa	962.53
16475 kPa	962.61
16500 kPa	962.78
16525 kPa	962.86
